Assay results taken from patent US20220361555A1, “INHIBITION OF UNDESIRED SENSORY EFFECTS BY THE COMPOUND CAMPHOR” (priority 2010, published 2022).
Several values for one entry are separate records, joined by “and”; a condition that tells them apart may be missing. Equal values may be shown once. Entries after “also recorded” stand apart in the source; their conditions may differ.

Legend:
[1] = test system: tongues of human volunteers; experiment: Pre-treatment with camphor (ethanol/water solution on a strip) on sensory irritation from nicotine; format: in vivo; conditions: 25, 50 or 100 ppm camphor on a strip for 30 seconds, then 0.1-0.3% nicotine; immediately and 30 seconds after initial exposure
From the text: FIGS. 1 and 2 show the results of a study on the effect of pre-treatment with camphor on sensory irritation from nicotine. Camphor was applied to tongues of human volunteers prior to application of a nicotine solution. Randomized sides of tongues were selected for application of 20 microliters of 0 ppm, 25 ppm, 50 ppm, or 100 ppm of camphor from an ethanol/water solution on a strip (thus, about […], respectively) for 30 seconds. Then, the subjects sipped, rinsed, then spit 0.1%, 0.2%, or 0.3% of a nicotine solution for a 5 second application. Participants were then asked which side of the tongue has the strongest burning sensation. Responses were collected both immediately (within 5 seconds) (FIG. 1) and after 30 seconds (FIG. 2). Controls received no camphor, and a baseline was established at zero camphor.

[2] = test system: participants (mouth); experiment: Determination of irritation threshold of camphor solution in the mouth; format: in vivo, human; design: key to irritation perceived: Y: the participant felt irritation at the indicated concentration; N: no irritation was felt; conditions: for irritation perceived: 2 ml solution swished 10 seconds
Experimental: A further study was conducted to determine the threshold at which camphor itself would cause sensory irritation.
Each test used two milliliters (2 ml) of a camphor solution. The camphor was dissolved in ethanol and further diluted in water. Participants received sequentially increasing concentration of camphor. Nine participants received samples including food grade racemic camphor, with concentrations of 200, 300, 400, […] 1000, 2000, 4000, 6000 ppm (corresponding to about […] per sample, respectively).
Participants wore nose clips during evaluation. Each participant sipped the sample, swished it in the mouth for 10 seconds, then spat it out. Each participant then indicated whether irritation was perceived. Between evaluations of each sample, participants rinsed with water and waited for one minute.
The left-most column indicates the participant number of each individual participant.

[3] = test system: mouth of subjects using oral tobacco; experiment: Snus pouches with camphor, perceived burning in the mouth (2AFC); format: in vivo, human; conditions: snus pouch
Experimental: A further study was conducted to determine if camphor affected perceived burning in the mouth of subjects using oral tobacco. Participants were given two snus pouch samples to use simultaneously, one in each side of the mouth. One sample was a control pouch with no camphor added and the other contained various concentrations of camphor (2.3, 6, 12, 23, 46, and 69 nanograms, corresponding to […], based on tobacco weight, respectively).
The hand-made test samples were constructed using unflavored tobacco (12% oven volatiles) to prevent any possible interference of the flavor system with the objective of the study. In preparing the pouches, the camphor was dissolved in 95% ethanol, with the control pouches receiving the ethanol only. […]
After two (2) minutes, five (5) minutes, and ten (10) minutes of using the samples, participants were asked to indicate which side of the mouth was burning more. Responses were recorded on paper by the experimenter. […] Following each evaluation, participants were asked to give details regarding where the burning was felt and to provide any open-ended comments regarding their experience, which were recorded on paper by the experimenter. Participants repeated the sensory evaluation procedures an additional six (6) times, with a maximum of two (2) pairs being evaluated each day.

[4] = test system: tongues of 18 participants; experiment: Camphor in NEOBEE oil carrier pretreatment, burning sensation from nicotine strips; format: in vivo, human; design: Difference from control (burning from nicotine): scale not given here
Experimental: Camphor pretreatment was performed using two taste strips applied bilaterally (blinded, randomized) on the tongues of 18 participants. Test strips had 250 microliters of NEOBEE oil carrier with camphor concentrations of C ranging from 300 ppm to 1800 ppm. Control strips contained 250 microliters of carrier only (NEOBEE Oil). The pretreatment time was about 30 seconds. Participants then removed the taste strips and nicotine strips were placed in treated area. The nicotine was provided in an amount of 730 micrograms in 50 microliters for about 30 seconds. Each nicotine strip was then removed, followed by sensory evaluation of burning immediately, at 30 seconds, and 2 minutes. For sensory evaluation, 2 AFC and sensory irritation intensity ratings were generated.
A repeated measures analysis of variance (ANOVA) model was applied to analyze the data. The model includes terms for study participant, study time and concentration of camphor (see the Table 1). The SAS procedure “PROC MIXED” was used. The p value was for the comparison between each concentration with the control. The chi squared test was used for calculating significance for forced choice values.

[5] = Sensory effect of camphor in mineral oil in smokeless tobacco products; format: in vivo
[6] = test system: nerve fibers; conditions: isolated mouse trachea model, Kichko et al.; cited from earlier work
[7] = test system: acetylcholine receptors; conditions: by inhibiting acetylcholine receptors, Park et al.; cited from earlier work

Structure (SMILES): CC12CCC(CC1=O)C2(C)C (racemic) [camphor]
- perceived burning from nicotine after pre-treatment with camphor [1]: significantly reduced perceived burning from nicotine
- irritation perceived ([2]; 200 ppm camphor, one line per participant): Y (3×) and N (6×)
- irritation perceived ([2]; 300 ppm camphor, one line per participant): Y (3×) and N (6×)
- irritation perceived ([2]; 400 ppm camphor, one line per participant): Y (4×) and N (4×)
- irritation perceived ([2]; 500 ppm camphor, one line per participant): N (3×) and Y (3×)
- irritation perceived ([2]; 1000 ppm camphor, one line per participant): N and Y (2×)
- irritation perceived ([2]; 2000 ppm camphor, one line per participant): Y
- irritation perceived ([2]; 4000 ppm camphor, one line per participant): Y
- irritation perceived ([2]; 6000 ppm camphor, one line per participant): Y
- mean threshold for producing irritation ([2]; n=9): 655 ppm
- Notes (sensation described by participant) ([2]; one line per participant, first line given): Very slight tingling at 200,; also recorded: Felt slight tingling at 2000,; also recorded: Felt some tingling at 1000,; also recorded: Tingling at 300, tingling no; also recorded: Slight tingling and burning at; also recorded: No Burning, slight tingling on; also recorded: Some burning at 200, stronger; also recorded: Felt slight tingling at 500,; also recorded: Some burning and stinging at
- time at which the effect on oral burning was strongest ([3]; asked at 2, 5 and 10 minutes): 10 min
- quantity of camphor most effective in reducing oral burning ([3]; printed as corresponding to 50 ppm): 12 nanogram
- sensory irritation from nicotine versus control ([4]; 600 ppm, 900 ppm and 1200 ppm camphor, immediately, at 30 seconds and at 120 seconds after nicotine): significant reduction in sensory irritation from nicotine
- Difference from control (burning from nicotine) ([4]; study time 0 sec, camphor 300 ppm in NEOBEE oil): 4.31
- Difference from control (burning from nicotine) ([4]; study time 0 sec, camphor 600 ppm in NEOBEE oil): −24.03
- Difference from control (burning from nicotine) ([4]; study time 0 sec, camphor 900 ppm in NEOBEE oil): −22.64
- Difference from control (burning from nicotine) ([4]; study time 0 sec, camphor 1200 ppm in NEOBEE oil): −19.99
- Difference from control (burning from nicotine) ([4]; study time 0 sec, camphor 1500 ppm in NEOBEE oil): −8.62
- Difference from control (burning from nicotine) ([4]; study time 0 sec, camphor 1800 ppm in NEOBEE oil): 7.29
- Difference from control (burning from nicotine) ([4]; study time 30 sec, camphor 300 ppm in NEOBEE oil): −1.67
- Difference from control (burning from nicotine) ([4]; study time 30 sec, camphor 600 ppm in NEOBEE oil): −18.00
- Difference from control (burning from nicotine) ([4]; study time 30 sec, camphor 900 ppm in NEOBEE oil): −19.72
- Difference from control (burning from nicotine) ([4]; study time 30 sec, camphor 1200 ppm in NEOBEE oil): −14.30
- Difference from control (burning from nicotine) ([4]; study time 30 sec, camphor 1500 ppm in NEOBEE oil): −11.11
- Difference from control (burning from nicotine) ([4]; study time 30 sec, camphor 1800 ppm in NEOBEE oil): 5.25
- Difference from control (burning from nicotine) ([4]; study time 120 sec, camphor 300 ppm in NEOBEE oil): −2.12
- Difference from control (burning from nicotine) ([4]; study time 120 sec, camphor 600 ppm in NEOBEE oil): −13.80
- Difference from control (burning from nicotine) ([4]; study time 120 sec, camphor 900 ppm in NEOBEE oil): −17.69
- Difference from control (burning from nicotine) ([4]; study time 120 sec, camphor 1200 ppm in NEOBEE oil): −11.93
- Difference from control (burning from nicotine) ([4]; study time 120 sec, camphor 1500 ppm in NEOBEE oil): −2.38
- Difference from control (burning from nicotine) ([4]; study time 120 sec, camphor 1800 ppm in NEOBEE oil): 2.16
- concentration of camphor that does not exhibit a sensory effect of its own (smell, taste, extensive cooling) [5]: less than 1300 ppm
- activation of nerve fibers induced by nicotine [6]: effectively inhibit activation of nerve fibers
- norepinephrine release from adrenal gland cells [7]: inhibit norepinephrine release
